Where “and” joins values, the source holds several entries; their conditions need not be identical. Identical values can stand only once. Toxic doses and inconclusive results are not listed. The calls were made as follows: active = survival T/C of 150% or more; inactive = T/C below 125% in these data.
Test system: P388 leukemia ip, CD2F1 mice, survival T/C
Assay: NCI In Vivo Anticancer Drug Screen. Data for tumor model P388 Leukemia (intraperitoneal) in CD2F1 (CDF1) mice
Settings: endpoint: median survival time, higher = longer survival
Experimental: The antitumor activity of compounds was measured in mice bearing transplantable tumors. Survival or tumor size were measured and the results are expressed as the measurement made in the treated group (T) divided by the measurement made in the vehicle treated control group (C). The tumor model used in this assay is P388 Leukemia (intraperitoneal) in CD2F1 (CDF1) mice

[1] = dose: 100.0 mg/kg/injection, schedule: Q04DX002 (ip), vehicle: saline with Tween-80
[2] = dose: 200.0 mg/kg/injection, schedule: Q04DX002 (ip), vehicle: saline with Tween-80
[3] = dose: 50.0 mg/kg/injection, schedule: Q01DX005 (ip), vehicle: saline with Tween-80
[4] = dose: 100.0 mg/kg/injection, schedule: Q01DX005 (ip), vehicle: saline with Tween-80
[5] = dose: 200.0 mg/kg/injection, schedule: Q01DX005 (ip), vehicle: saline with Tween-80

Measured: T/C

O=C1c2ccccc2C(=O)c2c(NCCO)ccc(NCCO)c21
inactive: dose: 25.0 mg/kg/injection, schedule: Q04DX002 (ip), vehicle: saline with Tween-80 96 % of control | dose: 50.0 mg/kg/injection, schedule: Q04DX002 (ip), vehicle: saline with Tween-80 91 % of control | [1] 95 % of control | [2] 90 % of control

CC(C)=CCSC(N)N
inactive: dose: 7.5 mg/kg/injection, schedule: Q01DX005 (ip), vehicle: saline 99 % of control | dose: 15.0 mg/kg/injection, schedule: Q01DX005 (ip), vehicle: saline 99 % of control | dose: 30.0 mg/kg/injection, schedule: Q01DX005 (ip), vehicle: saline 99 % of control | dose: 60.0 mg/kg/injection, schedule: Q01DX005 (ip), vehicle: saline 101 % of control

O=C1C=CC(=O)N1C(=O)NC(NC(=O)N1C(=O)C=CC1=O)c1cccc2ccccc12
inactive: [3] 100 % of control | [4] 99 % of control | [5] 90 % of control

CC(C)C1=CC(=O)C2=C(CCC3C(C)(C(=O)O)CCC[C@]23C)C1=O (some centres not stated)
inactive: dose: 6.0 mg/kg/injection, schedule: Q01DX005 (ip), vehicle: Klucel (hydroxypropylcellulose) (HPC) 102 % of control | dose: 12.0 mg/kg/injection, schedule: Q01DX005 (ip), vehicle: Klucel (hydroxypropylcellulose) (HPC) 104 % of control | dose: 24.0 mg/kg/injection, schedule: Q01DX005 (ip), vehicle: Klucel (hydroxypropylcellulose) (HPC) 100 % of control | dose: 48.0 mg/kg/injection, schedule: Q01DX005 (ip), vehicle: Klucel (hydroxypropylcellulose) (HPC) 99 % of control

O=C(O)CCc1cccc(O)c1
inactive: dose: 25.0 mg/kg/injection, schedule: Q01DX009 (ip), vehicle: saline 110 % of control | dose: 50.0 mg/kg/injection, schedule: Q01DX009 (ip), vehicle: saline 101 % of control | dose: 100.0 mg/kg/injection, schedule: Q01DX009 (ip), vehicle: saline 103 % of control | dose: 200.0 mg/kg/injection, schedule: Q01DX009 (ip), vehicle: saline 95 % of control

COC(=O)c1noc2c1CSc1ccccc1-2
inactive: [1] 104 % of control | [2] 99 % of control

CCN(CC)CCOCCc1ccccc1
inactive: dose: 12.5 mg/kg/injection, schedule: Q01DX005 (ip), vehicle: saline with Tween-80 98 % of control | dose: 25.0 mg/kg/injection, schedule: Q01DX005 (ip), vehicle: saline with Tween-80 98 % of control | [3] 98 % of control and 100 % of control

CCOC(=O)C1(C)C(=O)C=C(c2ccccc2)CC1c1ccccc1 (configuration not stated)
inactive: [3] 95 % of control | [4] 100 % of control | [5] 95 % of control

Cc1c(-c2ccccc2)nc(N(C)C)oc1=O
inactive: dose: 60.0 mg/kg/injection, schedule: Q01DX005 (ip), vehicle: saline with Tween-80 105 % of control | dose: 120.0 mg/kg/injection, schedule: Q01DX005 (ip), vehicle: saline with Tween-80 101 % of control | dose: 240.0 mg/kg/injection, schedule: Q01DX005 (ip), vehicle: saline with Tween-80 100 % of control

COc1ccc(C(=O)c2[nH]ncc2Nc2ccccc2)cc1
inactive: dose: 60.0 mg/kg/injection, schedule: Q01DX005 (ip), vehicle: Klucel (hydroxypropylcellulose) (HPC) 97 % of control | dose: 120.0 mg/kg/injection, schedule: Q01DX005 (ip), vehicle: Klucel (hydroxypropylcellulose) (HPC) 117 % of control | dose: 240.0 mg/kg/injection, schedule: Q01DX005 (ip), vehicle: Klucel (hydroxypropylcellulose) (HPC) 91 % of control

CCOC(=O)Nc1c(C)cc(C)cc1C
inactive: dose: 25.0 mg/kg/injection, schedule: Q01DX009 (ip), vehicle: Klucel (hydroxypropylcellulose) (HPC) 99 % of control | dose: 50.0 mg/kg/injection, schedule: Q01DX009 (ip), vehicle: Klucel (hydroxypropylcellulose) (HPC) 100 % of control | dose: 100.0 mg/kg/injection, schedule: Q01DX009 (ip), vehicle: Klucel (hydroxypropylcellulose) (HPC) 94 % of control | dose: 200.0 mg/kg/injection, schedule: Q01DX009 (ip), vehicle: Klucel (hydroxypropylcellulose) (HPC) 100 % of control

From PubChem BioAssay AID330 (DTP/NCI, 2004)
